Laboratory results taken from the NIST ThermoML archive (doi:10.1016/j.jct.2018.06.021).

Key:
[1] = wn = mass fraction of the nth substance listed; details: 101.3 kPa, Liquid, Vibrating tube method
[2] = 101.33 kPa, Liquid; for viscosity: Falling or rolling sphere viscometry; for mass density: Vibrating tube method

O [water] + OCCO
[1], w2 = 0
Details | mass density [kg/m3]
323.25 K | 988
333.35 K | 983.1

OCCO [1,2-ethanediol] + O
mass density [kg/m3], [1]
Details | 293.25 K | 293.45 K | 303.15 K | 303.45 K | 313.15 K | 323.25 K | 333.25 K | 333.35 K
w1 = 0.95 | – | 1109.3 | – | 1102.4 | – | 1088.3 | – | 1081
w1 = 1 | 1113.6 | – | 1106.5 | – | 1099.2 | 1091.9 | 1084.6 | –

OCCO [1,2-ethanediol]
[2]
Details | mass density [kg/m3] | viscosity [mPa·s]
303.15 K | 1106.3 | 13.66
308.15 K | – | 11.32
313.15 K | 1099.2 | 9.474
318.15 K | – | 8.016
323.15 K | 1092.1 | 6.849
328.15 K | 1088.4 | 5.903
333.15 K | 1084.8 | 5.124
338.15 K | 1081.2 | 4.482
343.15 K | 1077.5 | 3.946
348.15 K | 1073.7 | 3.496
353.15 K | 1070 | 3.112
